The results in this text go back to publication PMC8426295, “Cytotoxic and radiosensitising effects of a novel thioredoxin reductase inhibitor in breast cancer” (Investigational New Drugs, 2021).

One assay concerns MCF-7 cells. The assay is described as follows: Clonogenic survival assay. Type of assay: cell-based. Conditions: Homo sapiens. As to the method: (§1) 5 × 10^5 cells were seeded in T25 cm^2 tissue culture flasks and incubated overnight. The sub-confluent cells were then treated either for 4-h or 48-h with IQ9 (0–5000 nM) or doxorubicin (10–20 nM). Following drug treatment, cells were collected, counted, and plated at low-density, in triplicate, and incubated, at 37 °C, 5% CO2, undisturbed, for 2 weeks for TNBC cells and 3 weeks for luminal cells, for colony formation. Colonies were fixed (50% methanol in 0.9% saline solution) and stained (0.5% crystal violet solution). Colonies consisting of more than 50 cells were confirmed by microscopy and scored as survivors. The plating efficiency (PE) was calculated as numbers of colonies formed/ numbers of cells plated. For single-agent treatment, drug or radiation, the surviving fraction was calculated as: number of colonies formed/ (numbers of cell plated x PE). For drug radiation combination experiments, cytotoxicity of drug treatment was accounted for by calculating surviving fraction as: number of colonies formed from each radiation dose/ (number of cells plated × PE × surviving fraction of drug-treated cell at 0 Gy).
(§2) IC50 values were calculated from dose-response curves using an SPSS regression model between inhibition ratios and concentration gradients. The radiobiological parameters: alpha (α), beta (β), α/β ratio, and surviving fraction at 2 Gy (SF2) were extracted from the survival curves fitted using the LQ model. All results are presented as average ± standard deviation (SD) of three independent experiments, each performed in triplicate. Data were analysed using the student T-test and ANOVA one-way test. Statistical analysis was performed using SPSS 23.0 software. Values of P < 0.05 were considered statistically significant.

Another assay concerns MDA-MB-231 cells. The assay is described as follows: Clonogenic survival assay. Type of assay: cell-based. Conditions: Homo sapiens. As to the method:
as §1, §2

The subject of another assay is MDA-MB-468 cells. The assay is described as follows: Clonogenic survival assay. It is filed as cell-based. As to conditions: Homo sapiens. Here is the method: as §1, §2
The subject of assay [1] is triple-negative breast cancer cells. The assay is described as follows: Drug-radiation combination clonogenic survival, stated for TNBC cells together. Conditions: IQ9 for 4 h followed by irradiation, range over TNBC cell lines. Type of assay: cell-based, human. Here is the method: as §1, with “For drug radiation combination experiments, cytotoxicity of drug treatment was accounted for by calculating surviving fraction as: number of colonies formed from each radiation dose/ (number of cells plated × PE × surviving fraction of drug-treated cell at 0 Gy).” left out
Sub-confluent cells were irradiated with a dose of 2, 4, 6, or 8 Gy (at a dose rate of 0.87 Gy/min) using an RS225 x-ray cabinet irradiation system (Xstrahl Limited, UK), fitted with a 0.5 mm Cu filter and run at 195 kV, 10 mA. […] The sensitiser enhancement ratio (SER), calculated by dividing the X-ray dose causing 1% cell survival in the absence of drug treatment by the X-ray dose leading to 1% cell survival in the presence of drug treatment, was used to evaluate the degree of radiosensitisation.

In a further assay the test system is Txnip. The assay is described as follows: Western blotting of Txnip expression. Type of assay: cell-based, human. Conditions: any of the breast cancer cell lines, clonogenic IC50 concentration, 48 h. As to the method: Cells were treated with IQ9 (clonogenic IC50 concentrations) for 48 h, harvested, and resuspended in 1 mL of RIPA buffer (Sigma, UK) supplemented with 1X Halt phosphatase inhibitor cocktail, protease inhibitor cocktail, and EDTA. Samples were run on an SDS-polyacrylamide gel and transferred onto a 0.2 μm nitrocellulose membrane (GE Healthcare). The membrane was then blocked using 5% milk powder in 0.1% PBS/ Tween20, for 1 h at room temperature and then incubated with primary antibody overnight at 4 °C. Anti-β-actin antibody (Abcam) was used as a loading control. Primary antibodies were rabbit anti-human Trx (Abcam; 1:1000), mouse anti-human antibody (Abcam; 1:500), and rabbit anti-human Txnip (Abcam; 1:500). For Trx and Txnip, bands were detected using an Odyssey FC Imager (LI-COR). Images were obtained and fluorescence intensity quantified using Image Studio Software (version 4). The signals for Trx and Txnip were normalised against β-actin. For TrxR, bands were detected using an Amersham Enhanced Chemiluminescence system (GE Healthcare).

For orientation: IC50 means the concentration that inhibits the measured activity by half.

For `COC1=CC(=O)c2c(c(COc3c(F)cc(F)cc3F)cn2C)C1=O` [IQ9], the IC50 with MCF-7 cells (MCF7, 4 h) worked out at 340.5 ± 2.1 nM; in the assay on MCF-7 cells (MCF7, 48 h), 601 ± 114 nM; in the assay on MDA-MB-231 cells (MDA-MB-231, 4 h), 565 ± 29.5 nM; with MDA-MB-231 cells (MDA-MB-231, 48 h), 324 ± 20.1 nM; with MDA-MB-468 cells (MDA-MB-468, 4 h) it was 502 ± 171 nM; in the assay on MDA-MB-468 cells (MDA-MB-468, 48 h) it was 916 ± 173 nM. Moreover, in assay [1], the “SER values (sensitiser enhancement ratios)” value is on record as 1.20–1.43. Besides, the Txnip expression entry in the assay on Txnip was “not affected”.
